Patent US6495576B2, “Aminal diones as potassium channel openers” (Abbott Laboratories, priority 2001, dated 2002)
Like-named read-outs stand apart in the source and are kept apart here.

Test system: Landrace pig bladder strips
Assay: Functional potassium channel opening activity in isolated, field-stimulated bladder strips
Conditions: for Index: ED50 for P1075 divided by ED50 for test agonist in a given tissue, averaged; for EC50: amount causing 50% of the agent's maximal response, field stimulation 0.05 Hz, 0.5 ms, 20 volts, read-out: ED50 (the source's name); for Emax / Efficacy (%P1075): maximal efficacy on stimulated twitch, relative to P1075
Description: Compound were evaluated for functional potassium channel opening activity using tissue strips obtained from Landrace pig bladders.
Landrace pig bladders were obtained from female Landrace pigs of 9-30 kg. Landrace pig were euthanized with an intraperitoneal injection of pentobarbital solution, Somlethal ®, J. A. Webster Inc. Sterling Mass. The entire bladder was removed and immediately placed into Krebs Ringer bicarbonate solution (composition, mM: NaCl, 120; NaHCO3, 20; dextrose, 11; KCl, 4.7; CaCl2, 2.5; MgSO4, 1.5; KH2PO4, 1.2; K2EDTA, 0.01, equilibrated with 5% CO2/95% O2 pH 7.4 at 37° C.). Propranolol (0.004 mM) was included in all of the assays to block β-adrenoceptors. The trigonal and dome portions were discarded. Strips 3-5 mm wide and 20 mm long were prepared from the remaining tissue cut in a circular fashion. The mucosal layer was removed. One end was fixed to a stationary glass rod and the other to a Grass FT03 transducer at a basal preload of 1.0 gram. Two parallel platinum electrodes were included in the stationary glass rod to provide field stimulation of 0.05 Hz, 0.5 milli-seconds at 20 volts. This low frequency stimulation produced a stable twitch response of 100-500 centigrams. Tissues were allowed to equilibrate for at least 60 minutes and primed with 80 mM KCl. A control concentration response curve (cumulative) was generated for each tissue using the potassium channel opener P1075 as the control agonist. […] After a 60 minute rinsing period, a concentration response curve (cumulative) was generated for the test agonist in the same fashion as that used for control agonist P1075. The maximal efficacy of each compound (expressed as % relative to P1075) is reported. The amount of agent necessary to cause 50% of the agent's maximal response (ED50) was calculated using “ALLFIT” (DeLean et al., Am. J. Physiol., 235, E97 (1980)), hereby incorporated by reference. Agonist potencies were also expressed as an index relative to P1075. The index was calculated by dividing the ED50 for P1075 by the ED50 for the test agonist in a given tissue. Each tissue was used for only one test agonist, and the indices obtained from each tissue were averaged to provide an average index of potency.

SMILES | Index | EC50 (Sus scrofa) [nM] | Emax (Sus scrofa) [%] | EC50 [nM] | Efficacy (%P1075)
CC(C)(C)CC(NC(=O)c1cccc(Cl)c1)Nc1c(Nc2cccnc2)c(=O)c1=O (stereo not shown) [Example 64, 3-Chloro-N-(1-{[3,4-dioxo-2-(3 pyridinylamino)-1-cyclobuten-1-yl]amino}-3,3-dimethylbutyl)benzamide] | 0.025 | 4200 | 76 | – | –
Cc1cccc(C(=O)NC(Nc2c(Nc3cccnc3Cl)c(=O)c2=O)C(C)(C)Cc2ccccc2)c1 (stereo not shown) [Example 61, N-[1-({2[(2-Chloropyiridin-3-yl)amino]-3,4-dioxo-1-cyclobuten-1-yl}amino)-2,2-dimethyl-3-phenylpropyl]-3-methylbenzamide] | 0.50 | – | – | 470 | 64
CCC(CC)C(NC(=O)c1ccc(Cl)cc1)Nc1c(Nc2cccnc2)c(=O)c1=O (stereo not shown) [Example 21, 4-Chloro-N-(1-{[3,4-dioxo-2-(3-pyridinylamino)-1-cyclobuten-1-yl]amino}-2-ethylbutyl)benzamide] | 0.092 | – | – | – | –
COc1cc(OC)cc(C(=O)NC(Nc2c(Nc3cccnc3)c(=O)c2=O)C(C)(C)C)c1 (stereo not shown) [Example 13, N-(1-{[3,4-dioxo-2-(3-pyridinylamino)-1-cyclobuten-1-yl]amino}-2,2-dimethylpropyl)-3,5-dimethoxybenzamide] | 0.57 | – | – | – | –
CC(C)(C)C(NC(=O)c1cc(Cl)cc(Cl)c1)Nc1c(Nc2cccnc2)c(=O)c1=O (stereo not shown) [Example 12, 3,5-Dichloro-N-(1-{[3,4-dioxo-2-(3-pyridinylamino)-1-cyclobuten-1-yl]amino}-2,2-dimethylpropyl)benzamide] | 0.12 | – | – | – | –
CC(C)(C)C(NC(=O)c1cccc(Br)c1)Nc1c(Nc2cccnc2Cl)c(=O)c1=O (stereo not shown) [Example 67, 3-Bromo-N-[1-({2-[(2-chloropyridin-3-yl)amino]-3,4-dioxo-1-cyclobuten-1-yl}amino)-2,2-dimethylpropyl]benzamide] | 0.029 | 2500 | 72 | – | –
CC(C)(Cc1ccccc1)C(NC(=O)c1ccc(Cl)cc1)Nc1c(Nc2cccnc2Cl)c(=O)c1=O (stereo not shown) [Example 31, 4-Chloro-N-[1-({2-[(2-chloro-3-pyridinyl)amino]-3,4-dioxo-1-cyclobuten-1-yl}amino)-2,2-dimethyl-32-phenylpropyl]benzamide] | 0.039 | – | – | 2900 | 76
CC(C)(C)C(NC(=O)c1cccc(I)c1)Nc1c(Nc2cccnc2)c(=O)c1=O (stereo not shown) [Example 8, N-(1-{[3,4-Dioxo-2-(3-pyridinylamino)-1-cyclobuten-1-yl]amino}-2,2-dimethylpropyl)-3-iodobenzamide] | 0.047 | – | – | – | –
CC(C)(C)C(NC(=O)c1cc(F)cc(F)c1)Nc1c(Nc2cccnc2)c(=O)c1=O (stereo not shown) [Example 16, N-(1-{[3,4-Dioxo-2-(3-pyridinylamino)-1-cyclobuten-1-yl]amino}-2,2-dimethylpropyl)-3,5-difluorobenzamide] | 0.046 | – | – | – | –
CC(C)(C)C(NC(=O)c1ccc(I)cc1)Nc1c(Nc2cccnc2)c(=O)c1=O (stereo not shown) [Example 3, N-(1-{[3,4-Dioxo-2-(3-pyridinylamino)-1-cyclobuten-1-yl]amino}-2,2-dimethylpropyl)-4-iodobenzamide] | 0.062 | – | – | – | –
CC(Cl)(Cl)C(NC(=O)c1cc(F)cc(F)c1)Nc1c(Nc2cccnc2)c(=O)c1=O (stereo not shown) [Example 51, N-(2,2-Dichloro-1-{[3,4dioxo-2-(3-pyridinylamino)-1-cyclobuten-1-yl]amino}propyl)-3,5-difluorobenzamide] | 0.080 | 1400 | 96 | – | –
Cc1cccc(C(=O)NC(Nc2c(Nc3cccnc3)c(=O)c2=O)C(C)(C)C)c1 (stereo not shown) [Example 6, N-(1-{[3,4-Dioxo-2-(3-pyridinylamino)-1-cyclobuten-1-yl]amino}-2,2-dimethylpropyl)-3-methylbenzamide] | 0.067 | – | – | – | –
